Like-named read-outs stand apart in the source and are kept apart here.

Assay type in all cases: cell-based, human
Test [1] concerns A2780 cells. Briefly: Resazurin cytotoxicity, dark and after white light projector irradiation (>600 nm), A2780. As for the experimental part: (§1) Therefore, the cytotoxicity of the Pc-based compounds was evaluated against different cell lines both under irradiation and in the dark. Compounds LC31, MLC31, and DMLC31Pt, as well as cisplatin were screened against several cancer cell lines representative of human cervical cancer (HeLa), cisplatin-sensitive human ovarian carcinoma (A2780), cisplatin-resistant ovarian endometrioid adenocarcinoma (A2780/CP70), and non-cancerous fibroblast (MRC-5) cell lines. […]
(§2) Human cervical carc in oma cells (HeLa) were cultured in DMEM (Gibco) supplemented with 5% fe t a l calf serum (FCS, Gibco), 100 U/mL penicillin, 100 µg/mL st re pto myc i n . The normal human fe t a l lung fibroblast cell line (MRC‐5) wa s grown in MEM medium (Gibco) supplemented with 10% FCS (Gibco), penicillin (100 U/mL), and st re pto myc i n (100 µg/mL). The human ovarian carc in oma A2780 cell line and a cisplatin‐resistant subline CP70 were cultured in RPMI‐1640 medium (Gibco) supplemented with 10% FCS (Gibco), penicillin (100 U/mL), and st re pto myc in (100 μg/mL). The cells were cultured at 37 °C an d in 5% CO2 humidified at mo sph e re .
(§3) Cy to toxicit y Determination
(§4) The c y totoxic ity of the PSs in the dark and upon light irradiation was evaluated in several cell lines, using a re sa zu r in‐based fluorometric cell viability assay (Sigma‐Aldrich, Darmstadt, Germany). Stock solutions of the Pc agents (5 mM) were prepared in DMF and sto re d in the dark. The sto c k solutions were further diluted with co mp l ete medium to the desired working concentrations. Fo r an exp eriment , 100 µL aliquots of cells in growth medium were seeded in 96‐well plates (density of 2.5 × 10^3 cells/well fo r HeLa, 4 × 10^3 cells/well fo r A2780, and 1.5 × 10^3 cells/well fo r MRC‐5 cells) and incubated at 37 °C, 5% CO2 and 100% humidity. […] At the end of the incubation period, fluorescence of the highly re d fluorescent re so r u f in product (λex = 540 nm, λem = 590 nm) was quantified using a SpectraMax M5 microplate re a d e r (Molecular Device, San Jose, USA). […]

The subject of test [2] is HeLa cells. Put plainly: Resazurin cytotoxicity, dark and after white light projector irradiation (>600 nm), HeLa. As for the experimental part:
as §1, §2, §3, §4
(The colour change of resazurin is a common sign of viable cells or microbes.)

Test [3] has as its system MRC-5 cells. Briefly: Resazurin cytotoxicity, dark and after white light projector irradiation (>600 nm), MRC-5. The procedure:
as §1, §2, §3, §4

For test [4], the system named is A2780/CP70 cells. Briefly: Resazurin cytotoxicity, dark and after white light projector irradiation (>600 nm), A2780/CP70. As for the experimental part:
as §1, §2, §3, §4

As for `N.N.[Cl][Pt][Cl]` [cisplatin, Cis-[PtCl2(NH3)2]], in test [1] (6.96 J cm^−2), the “p.i. A2780” value came out at 0.7. Moreover, the IC50 in test [1] (4 h incubation in the dark, further 72 h incubation, read-out: IC50 A2780 Dark) was 2.8 µM; in test [1] (4 h incubation, white light projector cutoff below 600 nm, 5.8 mW cm^−2, 6.96 J cm^−2, read-out: IC50 A2780 Light) it was 4 µM; in test [2] (4 h incubation in the dark, further 72 h incubation, read-out: IC50 HeLa Dark), 1.3 µM; in test [2] (4 h incubation, white light projector cutoff below 600 nm, 5.8 mW cm^−2, 6.96 J cm^−2, further 72 h, read-out: IC50 HeLa Light), 1.7 µM; in test [3] (MRC-5, 4 h incubation, white light projector cutoff below 600 nm, 5.8 mW cm^−2, 6.96 J cm^−2, read-out: IC50 MRC-5 Light), 4.5 µM; in test [3] (MRC-5 non-cancerous fibroblast, 4 h incubation in the dark, read-out: IC50 MRC-5 Dark), 5.4 µM. The IC50 stood at 102 µM in test [4] (A2780/CP70 (cisplatin resistant), 4 h incubation in the dark, read-out: IC50 A2780/CP70 Dark) and 129 µM in test [4] (A2780/CP70, 4 h incubation, white light projector cutoff below 600 nm, 5.8 mW cm^−2, 6.96 J cm^−2, read-out: IC50 A2780/CP70 Light). Besides, the “p.i. HeLa (phototoxicity index, IC50 dark / IC50 light)” value in test [2] (6.96 J cm^−2) was found to be 0.76. Also, the “p.i. MRC-5” value in test [3] (MRC-5, 6.96 J cm^−2) amounted to 1.2. Besides, in test [4] (A2780/CP70, 6.96 J cm^−2), the “p.i. A2780/CP70” value is recorded as 0.79.

Values taken from article PMC9455738, “Low-Dose Near-Infrared Light-Activated Mitochondria-Targeting Photosensitizers for PDT Cancer Therapy” (International Journal of Molecular Sciences, 2022).
